# Experimental data taken from patent US7312225B2, “Macrocyclic pyrimidines, their production and use as pharmaceutical agents” (Bayer Schering Pharma AG, priority 2002, dated 2007).
# Counter-ions that a name gives are not always drawn. Like-named read-outs stand apart in the source and are kept apart here.
# Key:
# MCF7 = test: Proliferation assay MCF7; assay type: cell-based; settings: Homo sapiens, MCF7, 96 h, 4 days incubation, crystal violet
# Text: (§1) Cultivated human tumor cells (MCF7, […] human breast cancer cells, relative to ATCC HTB22; NCI-H460, human non-small-cell lung cancer cells, ATCC HTB-177, HCT 116, human colon cancer cells, ATCC CCL-247; DU 145, hormone-independent human prostate cancer cells, ATCC HTB-81; MaTu-MDR, hormone-independent, multiple pharmaceutical agent-resistant human breast cancer cells, EPO-GmbH, Berlin) were flattened out at a density of about 5000 cells/measuring point, depending on growth rates of the respective cells in a 96-well multititer plate in 200 μl of the corresponding growth medium. After 24 hours, the cells of one plate (zero-point plate) were colored with crystal violet (see below), while the medium of the other plates was replaced by fresh culture medium (200 μl), to which the test substances were added at various concentrations (0 μmol, as well as in the range of 0.01-30 μmol; the final concentration of the solvent dimethyl sulfoxide was 0.5%). The cells were incubated for 4 days in the presence of test substances. The cell proliferation was determined by coloring the cells with crystal violet: the cells were fixed by adding 20 μl/measuring point of an 11% glutaric aldehyde solution for 15 minutes at room temperature. After three washing cycles of the fixed cells with water, the plates were dried at room temperature. The cells were colored by adding 100 μl/measuring point of a 0.1% crystal violet solution (pH was set at 3 by adding acetic acid). After three washing cycles of the colored cells with water, the plates were dried at room temperature. The dye was dissolved by adding 100 μl/measuring point of a 10% acetic acid solution. The extinction was determined by photometry at a wavelength of 595 nm. The change of cell growth, in percent, was calculated by standardization of the measured values to the extinction values of the zero-point plate (=0%) and the extinction of the untreated (0 μm) cells (=100%).
# H460 = test: Proliferation assay H460; assay type: cell-based; settings: Homo sapiens, NCI-H460, 96 h; Table II; 4 days incubation, crystal violet
# Text: as §1
# MaTu-ADR = test: Proliferation assay MaTu-ADR; assay type: cell-based; settings: Homo sapiens, 96 h; Table II; 4 days incubation, crystal violet; read-out: Proliferation IC50 MaTu-ADR
# Text: as §1
# CDK2/CycE = target: T1, CDK2/CycE (Homo sapiens, UniProt P24941); test: CDK2/CycE kinase assay; assay type: biochemical
# T1 construct: GST; purchased ProQinase GmbH, Freiburg; host or cells: baculovirus-infected insect cells (Sf9)
# Protocol: Recombinant CDK2- and CycE-GST-fusion proteins, purified from baculovirus-infected insect cells (Sf9), were purchased from ProQinase GmbH, Freiburg. Histone IIIS, which was used as a kinase substrate, was purchased from the Sigma Company.
# The reaction was stopped by adding EDTA solution (250 mmol, pH 8.0, 14 μl/measuring point).
# From each reaction batch, 10 μl was applied to P30 filter strips (Wallac Company), and non-incorporated ^33P-ATP was removed by subjecting the filter strips to three washing cycles for 10 minutes each in 0.5% phosphoric acid. After the filter strips were dried for one hour at 70° C., the filter strips were covered with scintillator strips (MeltiLex™ A, Wallac Company) and baked for one hour at 90° C. The amount of incorporated ^33P (substrate phosphorylation) was determined by scintillation measurement in a gamma-radiation measuring device (Wallac).
# DU145 = test: Proliferation assay DU145; assay type: cell-based; settings: Homo sapiens, DU-145, 96 h; Table II; 4 days incubation, crystal violet
# Text: as §1
# HCT116 = test: Proliferation assay HCT116; assay type: cell-based; settings: Homo sapiens, HCT-116, 96 h; Table II; 4 days incubation, crystal violet
# Text: as §1
# CDK1/CycB = target: T2, CDK1/CycB (Homo sapiens, UniProt P06493); test: CDK1/CycB kinase assay; assay type: biochemical; settings: Table I
# T2 construct: GST; purchased ProQinase GmbH, Freiburg; host or cells: baculovirus-infected insect cells (Sf9)
# T2 sequence (P06493 whole entry): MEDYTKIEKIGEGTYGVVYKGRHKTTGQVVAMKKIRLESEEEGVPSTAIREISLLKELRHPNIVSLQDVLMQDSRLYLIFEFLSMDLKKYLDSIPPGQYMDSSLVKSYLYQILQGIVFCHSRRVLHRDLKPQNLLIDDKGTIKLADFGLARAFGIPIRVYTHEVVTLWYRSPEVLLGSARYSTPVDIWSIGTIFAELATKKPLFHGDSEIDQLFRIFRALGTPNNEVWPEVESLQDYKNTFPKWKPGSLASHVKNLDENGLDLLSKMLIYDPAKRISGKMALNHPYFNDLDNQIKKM
# T2 sequence (P14635 whole entry partner): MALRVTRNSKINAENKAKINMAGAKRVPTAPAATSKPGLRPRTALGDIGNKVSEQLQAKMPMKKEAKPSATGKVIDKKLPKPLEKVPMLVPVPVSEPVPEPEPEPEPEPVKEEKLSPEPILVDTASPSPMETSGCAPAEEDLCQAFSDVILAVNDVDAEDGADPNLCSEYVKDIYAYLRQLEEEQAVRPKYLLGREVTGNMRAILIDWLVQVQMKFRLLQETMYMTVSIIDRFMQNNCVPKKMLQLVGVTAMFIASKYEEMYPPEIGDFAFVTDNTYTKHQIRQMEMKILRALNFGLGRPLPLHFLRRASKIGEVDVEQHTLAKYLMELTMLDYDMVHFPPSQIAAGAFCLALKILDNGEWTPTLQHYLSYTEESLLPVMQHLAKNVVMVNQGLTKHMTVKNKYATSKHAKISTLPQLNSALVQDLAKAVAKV
# Protocol: Recombinant CDK1- and CycB-GST fusion proteins, purified from baculovirus-infected insect cells (Sf9), were purchased from ProQinase GmbH, Freiburg. Histone IIIS, which was used as a kinase substrate, is commercially available from the Sigma Company.
# CDK1/CycB (200 ng/measuring point) was incubated for 15 minutes at 22° C. in the presence of various concentrations of test substances (0 μm, as well as within the range of 0.01-100 μm) in assay buffer [50 mmol of tris/HCl, pH 8.0, 10 mmol of MgCl2, 0.1 mmol of Na ortho-vanadate, 1.0 mmol of dithiothreitol, 0.5 μm of adenosine triphosphate (ATP), 10 μg/measuring point of histone IIIS, 0.2 μCi/measuring point of 33P-gamma ATP, 0.05% NP40, 12.5% dimethyl sulfoxide]. The reaction was stopped by adding EDTA solution (250 mmol, pH 8.0, 14 μl/measuring point).
# From each reaction batch, 10 μl was applied to P30 filter strips (Wallac Company), and non-incorporated 33P-ATP was removed by three washing cycles of the filter strips for 10 minutes each in 0.5% phosphoric acid. After the filter strips were dried for 1 hour at 70° C., the filter strips were covered with scintillator strips (MeltiLex™ A, Wallac Company) and baked for one hour at 90° C. The amount of incorporated 33P (substrate phosphorylation) was determined by scintillation measurement in a gamma-radiation measuring device (Wallac).
# [1] = target: T3, VEGF Receptor tyrosine kinase-2 (Homo sapiens, UniProt P35968); test: VEGF Rezeptor-2 kinase assay; assay type: biochemical; settings: Table I; read-out: VEGF-R2 IC50
# T3 construct: GST; made in house; host or cells: baculovirus-infected insect cells (Sf9)
# T3 sequence (P35968 20-1356): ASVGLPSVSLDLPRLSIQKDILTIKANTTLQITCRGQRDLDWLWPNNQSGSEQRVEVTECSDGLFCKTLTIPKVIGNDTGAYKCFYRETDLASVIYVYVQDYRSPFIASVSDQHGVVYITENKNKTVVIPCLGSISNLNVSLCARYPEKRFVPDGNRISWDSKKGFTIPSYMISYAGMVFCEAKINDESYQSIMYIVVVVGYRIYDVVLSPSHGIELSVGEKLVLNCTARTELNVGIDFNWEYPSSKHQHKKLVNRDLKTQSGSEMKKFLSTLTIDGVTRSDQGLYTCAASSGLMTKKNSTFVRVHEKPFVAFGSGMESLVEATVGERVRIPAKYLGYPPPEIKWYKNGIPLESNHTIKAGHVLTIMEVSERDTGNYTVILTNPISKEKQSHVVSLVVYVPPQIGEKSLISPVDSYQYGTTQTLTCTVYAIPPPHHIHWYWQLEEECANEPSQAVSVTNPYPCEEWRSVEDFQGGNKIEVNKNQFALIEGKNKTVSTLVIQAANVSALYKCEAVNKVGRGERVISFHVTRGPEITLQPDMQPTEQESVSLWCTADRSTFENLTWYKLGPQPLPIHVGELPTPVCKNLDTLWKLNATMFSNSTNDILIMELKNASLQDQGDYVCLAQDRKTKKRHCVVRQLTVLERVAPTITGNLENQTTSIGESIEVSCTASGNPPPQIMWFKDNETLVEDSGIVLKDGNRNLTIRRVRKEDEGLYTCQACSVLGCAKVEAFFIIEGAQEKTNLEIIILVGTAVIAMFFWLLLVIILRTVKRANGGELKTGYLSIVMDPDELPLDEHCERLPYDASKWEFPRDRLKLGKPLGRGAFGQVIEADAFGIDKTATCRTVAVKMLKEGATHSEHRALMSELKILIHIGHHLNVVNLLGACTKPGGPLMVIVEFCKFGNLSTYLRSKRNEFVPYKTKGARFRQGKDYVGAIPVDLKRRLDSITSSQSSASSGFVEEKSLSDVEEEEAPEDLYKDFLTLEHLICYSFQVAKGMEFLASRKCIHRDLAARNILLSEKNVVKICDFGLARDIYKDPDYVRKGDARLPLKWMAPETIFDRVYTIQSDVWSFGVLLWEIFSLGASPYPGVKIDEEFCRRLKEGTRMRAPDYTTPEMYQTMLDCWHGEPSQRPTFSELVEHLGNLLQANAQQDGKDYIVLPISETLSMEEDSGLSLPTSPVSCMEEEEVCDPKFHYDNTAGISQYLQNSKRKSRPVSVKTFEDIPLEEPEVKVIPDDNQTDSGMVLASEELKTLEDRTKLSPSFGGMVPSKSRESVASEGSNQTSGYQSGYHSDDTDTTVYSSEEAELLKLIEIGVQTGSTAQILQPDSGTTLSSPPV
# Protocol: VEGF Rezeptor-2 Kinase Assay
# Recombinant VEGF Receptor tyrosine kinase-2 was purified as GST-fusion protein from baculovirus-infected insect cells (Sf9). Poly-(Glu4Tyr), which was used as a kinase substrate, was purchased from the Sigma Company.
# VEGF Receptor tyrosine kinase (90 ng/measuring point) was incubated for 10 minutes at 22° C. in the presence of various concentrations of test substances (0 μmol, as well as within the range of 0.001-30 μM) in 30 μl of assay buffer [40 mmol of Tris/HCl […], 10 mmol of MgCl2, 1 mmol of MnCl2, 3 μmol of Na orthovanadate, 1.0 mmol of dithiothreitol, 8 μmol of adenosine trisphosphate (ATP), 27 μg/measuring point of poly-(Glu4Tyr), 0.2 μCi/measuring point of ^33P-gamma ATP, 1% dimethyl sulfoxide]. The reaction was stopped by adding EDTA solution (250 mmol, pH 7.0, 10 μl/measuring point).
# From each reaction batch, 10 μl was applied to P30 filter strips (Wallac Company), and non-incorporated 33P-ATP was removed by subjecting the filter strips to three washing cycles for 10 minutes each in 0.5% phosphoric acid. After the filter strips were dried for 1 hour at 70° C., the filter strips were covered with scintillator strips (MeltiLex™ A, Wallac Company) and baked on for 1 hour at 90° C. The amount of incorporated 33P (substrate phosphorylation) was determined by scintillation measurement in a gamma-radiation measuring device (Wallac).
# [2] = Table II, read-out: Proliferation IC50 MCF7
# [3] = Table I, read-out: CDK2/CycE IC50
# [4] = Table II, read-out: Inhibition IC50 CDK2/CycE
"IC50 (MCF7; Table I, read-out: MCF7 IC50)",IC50 (MCF7; [2]),IC50 (H460),IC50 (CDK2/CycE; [3]),IC50 (CDK2/CycE; [4]),IC50 (DU145),IC50 (HCT116),IC50 (CDK1/CycB),IC50 [1],Compound,IC50 (MaTu-ADR)
1000 nM,1000 nM,1700 nM,23 nM,23 nM,2900 nM,900 nM,28 nM,< 10 nM,"O=S1(=O)NCCC(CO)Nc2nc(ncc2Br)Nc2cccc1c2 (racemic) [Example 1.3, rac-1^5-Bromo-4-thia-2,5,9-triaza-1(2,4)-pyrimidina-3(1,3)-benzenacyclonaphane-8-methanol-4,4-dioxide Hydrochloride]",2800 nM
900 nM,900 nM,600 nM,–,–,1300 nM,400 nM,28 nM,69 nM,"O=[N+]([O-])c1cc2cc(c1)S(=O)(=O)NCCCNc1nc(ncc1Br)N2 [Example 1.5, 1^5-Bromo-3^5-nitro-4-thia-2,5,9-triaza-1(2,4)-pyrimidina-3(1,3)-benzenacyclononaphane-4,4-dioxide hydrochloride]",600 nM
1300 nM,1300 nM,500 nM,130 nM,130 nM,500 nM,400 nM,80 nM,140 nM,"NS(=O)(=O)c1ccc2cc1OCCCCNc1nc(ncc1Br)N2 [Example 8.0, 1^5-Bromo-4-oxa-2,9-diaza-1(2,4)-pyrimidina-3(1,3)-benzenacyclononaphane-3^4-sulfonamide]",400 nM
